Measured values reported in patent US7683045B2, “Class of γδ T cells activators and use thereof” (Innate Pharma S.A., priority 2005, dated 2010).
“Also recorded” adds a separate entry of the source. Like-named read-outs stand apart in the source and are kept apart here.

Experiments:
[1] = system: primary polyclonal human Vγ9Vδ2 T cells; assay: TNFα release (cytokine release) assay; assay type: cell-based; settings: for relative potency in words: TNFα release assay, comparison of the tested compounds
Description: Cells (primary polyclonal human Vγ9Vδ2 T cells which have been expanded in vitro and stored frozen at day 12-15 of expansion) are thawed and rinsed twice and centrifuged. Upon elimination of supernatant and resuspension of cells, the cells are incubated for 24 h at 37° C. in the presence of IL2 100 IU/ml (final concentration). The cells are washed and centrifuged, following which the supernatant is eliminated and the cells are resuspended and adjusted to the adequate final concentration. The cells are added to the wells of a 96-well plate.
To one row of wells is added a standard dilution series of (R,S)-3-(bromomethyl)-3-butanol-1-yl-diphosphate (R,S-BrHPP). Compounds to be tested, in this case (E)-4-hydroxy-3-methyl-2-butenyl pyrophosphate ((E)-HDMAPP) and the HAngelylPP and HTiglylPP compounds of the Angelyl/Tiglyl phosphoester series are added to experimental wells, after several dilutions.
Full plates are incubated 24 hours at 37° C. for stimulation of the γδ cells with the test compound and reference compounds, in this case HAngelylPP and HTiglylPP, (R,S)—BrHPP and (E) —HDMAPP, as further described below. After this time, 100 μl of culture supernatant is taken for TNFα dosage. Measurement of the released TNFα dosage is performed as described by the manufacturer's instruction in the TNFα enzyme immunoassay kit (ref. 11121, Immunotech—Beckman Coulter). OD at 405 nm is read, the OD being proportional to the concentration of released TNFα in the culture supernatant. The data are processed with the Excel software to compare concentration of test compound versus concentration of TNFα and for the calculation of the EC50 for each test compound.
The bioactivity of the compound HAngelylPP was assessed using a TNFα release assay as described above. Compounds (R,S)—BrHPP and (E)-HDMAPP were included for purpose of comparison. […] As will be appreciated, any other suitable assays such as cell amplification may be used in assessing compounds.

γδ T cells = settings: reported at best (Wilhelm et al., 2003); cited from earlier work

CC(O)(CBr)CCOP(=O)(O)OP(=O)(O)O (racemic) [(R,S)-BrHPP, (R,S)-3-(bromomethyl)-3-butanol-1-yl-diphosphate, reference compound]
EC50 ([1]; Homo sapiens, T-cell, TNFα release, 24 hours stimulation at 37° C., relative screening test (FIG. 3), read-out: in vitro EC50): 0.0377 µM | EC50 ([1]; Homo sapiens, T-cell, prior assays with calibrated cells using a (R,S)-BrHPP-standard composition, read-out: EC50): ~0.015 µM

NCCC(O)(P(=O)(O)O)P(=O)(O)O [pamidronate]
increase in γδ T cell count (γδ T cells): ≤ 2 fold

(E)-4-hydroxy-2-methylbut-2-enyl pyrophosphate [HTiglylPP]
relative potency in words [1]: highly potent | EC50 ([1]; TNFα release, 24 hours stimulation at 37° C., relative screening test (FIG. 3), read-out: in vitro EC50): 0.015 µM

(Z)-4-hydroxy-2-methylbut-2-enyl pyrophosphate [HAngelylPP]
relative potency in words [1]: highly potent; also recorded: the most potent compound of those tested
